The values that follow come from patent publication US20080269121A1, “Methods and Compositions Involving A1c Subunit of L-Type Calcium Channels in Smooth Muscle Cells” (The Board of Regents of the University of Texas System, priority 2005, published 2008).

Entries after “also recorded” stand apart in the source; their conditions may differ.

One assay concerns HCCSMC. Description: Cytosolic free Ca^2+ measurement (fura-2 AM) in HCCSMC. Type of assay: cell-based, human. Particulars: treatment for 24 h, by. The procedure:
Cytosolic free Ca^2+ measurement: Cytosolic calcium level ([Ca^2+]i) was measured in a wide-field imaging system at the UTMB core Optical Imaging Laboratory using the Ca^2+-sensitive fluorescent dye fura 2-AM (Molecular Probes, Eugene, Oreg.). HCCSMC cultured on cover slips were incubated with 1 μM fura 2-AM for 45 min at 37° C. in a modified HEPES buffer (pH 7.4) containing (in mM): 10 HEPES, 125 NaCl, 5 KCl, 1 CaCl2, 0.5 MgSO4, 5 glucose. Cover slips with cells were washed with fresh medium and mounted on the stage of a Nikon TE200 inverted microscope (Nikon Instruments, Lewisville, Tex.) equipped with a CoolSNAP HQ cooled-CCD monochrome digital camera (Roper Scientific, Tucson Ariz.). Cells were examined under a super-fluor 20×0.75 NA objective during exposure to alternating 340 and 380 nm excitation light (DG4 illuminator system, Sutter Instrument, Novato, Calif.), and the intensity of light emission at 510 nm was measured. The light intensities and their ratio, F340/F380, which reflects changes in Ca^2+ concentration, were followed simultaneously in several single cells in the field. The acquisition process was controlled by the Metafluor image acquisition software (Universal Imaging Corp. Downingtown, Pa.).

Assay [1] deals with α1C subunit of L-type Ca^2+ channels. Description: α1C protein expression (Western immunoblotting). The format is cell-based, human. An excerpt:
(§1) Primary cultures of HCCSMC: Human tissue was obtained from the descending and sigmoid colons with approval of the University of Texas Medical Branch Institutional Review Board from disease free margins of resected segments from patients undergoing surgery for colon cancer. The circular muscle layer was separated from the taenia coli and lamina propria with a tissue slicer. The circular muscle layer was collected in ice-cold HEPES buffer (in mM: 120 NaCl, 2.6 KH2S04, 4 KCl, 2 CaCl2, 0.6 MgCl2, 25 HEPES, 14 glucose and 2.1% essential amino acid mixture, pH 7.4). Two successive digestions with papain and collagenase, as described previously by Shi and Sarna, were used to disperse smooth muscle cells. The cells were cultured in RPMI 1640 (Gibco/Invitrogen, Carlsbad, Calif.) supplemented with 10% fetal bovine serum in the presence of 100 units/mL of penicillin G, 100 μg/mL of streptomycin sulfate and 0.25 μg/mL of amphoteracin B. The culture medium was changed every three days. Cells in passages 3 to 5 were used in all experiments. All cells were cultured in serum-free medium for at least 15 h prior to experiments to eliminate the possible effects of growth factors. […] The cultures of colonic smooth muscle cells retain their contractile phenotype. Each experiment used cells or muscle strips from at least three different subjects.
(§2) Western immunoblotting. Each lane is loaded with 10 μg protein and size-separated on a 10% SDS polyacrylamide gel. After blotting, the nitrocellulose membranes are blocked with 10% non-fat dried milk at 4° C. overnight. The blots are incubated with appropriate dilution of the antibody at 4° C. overnight and appropriate dilution of designated secondary antibody at room temperature for 1 h. β-actin is used as internal control.
(Immunoblotting shows a protein as a band on a membrane.)

Another assay deals with cAMP. Briefly: cAMP levels in HCCSMC. Type of assay: cell-based, human.
From the text: as §1
In general terms: Changes in cAMP serve as a functional read-out for many G protein-coupled receptors.

A further assay has as its system CREB. Description: CREB phosphorylation in HCCSMC. Type of assay: cell-based, human. The procedure: as §2
For the next assay, the system named is CRE1 and CRE2. Briefly: Oligonucleotide agarose conjugate pull-down of CREB. Type of assay: cell-based, human. The note with it: FIG. 10.
For the next assay, the system named is p38. Briefly: MAP kinase phosphorylation: p38. Type of assay: cell-based.
For assay [2], the system named is TNBS (trinitrobenzene sulfonic, acid)-induced colitis. Particulars: systemic bolus injections, mouse; cited from earlier work.
Assay [3] concerns human colonic circular muscle strips. Description: Muscle bath: contractile response of human colonic circular muscle strips. Type of assay: cell-based. Here is the method: Muscle bath experiments. Pure circular muscle strips (2 mm×10 mm) are prepared from resected human colon segments. The strips are mounted in 5 ml baths filled with carbonated Krebs solution (in mM: 118 NaCl, 4.7 KCl, 2.5 CaCl2, 1 NaH2PO4, 1-2 MgCl2, 11 D-glucose, and 25 NaHCO3) at 37° C. (Siebenlist et al., 1994; Barnes and Karin, 1997). The muscle strips are equilibrated for 1 h at 1 g tension and then stretched until maximal response is obtained to 10^−4 m ACh. The bathing solution is replaced every 15 min. Contractions are measured by force transducers and analyzed by DATAQ (Akron, Ohio) software.
The protocol for transfection of sense and antisense oligonucleotides in freshly obtained muscle strips was similar to that in HCCSMC. The circular muscle layer was isolated from the fall thickness human colon, and sliced into 2 mm×10 mm muscle strips. The strips were incubated in RPMI 1640 without serum. The sense and antisense oligonucleotides (10 μM) were added into the medium for 24 h before incubation with 20 ng/mL TNFα for 24 h.

For the next assay, the system named is ERK ½. Briefly: MAP kinase phosphorylation: ERK ½. Type of assay: cell-based.
Assay [4] relates to α1C subunit of L-type Ca^2+ channels. Briefly: Q-PCR of α1C mRNA expression in HCCSMC. Type of assay: cell-based, human.
From the text: as §1
Total RNA was extracted from cells using the Qiagen RNeasy kit (Qiagen, Valencia, Calif.) by following the manufacturer's protocol. The cDNAs were made using the Superscript First-Strand Synthesis System (Invitrogen, Carlsbad, Calif.).
Quantitive real-time-polymerase chain reaction (Q-PCR). Q-PCR assay is employed to determine gene expression using TaqMan technology on Applied Biosystems 7000 sequence detection system (UTMB Real-time PCR Core Facility). Applied Biosystems Assays-By-Design containing a 20× assay mix of primers and TaqMan MGB probes (FAMTM dye-labeled) are used for a target gene and the endogenous control, human 18s RNA. These assays were designed using primers that span exon-exon junctions so as not to detect genomic DNA. All primer and probe sequences were searched against the Celera data base to confirm specificity. The primer and probe sequences used were as follows: human Cav1.2 channel oα1C intermediate form (Cav1.2b) probe spanning exon 1b and exon 2, […] (SEQ ID NO:4): forward primer, […] (SEQ ID NO:5): reverse primer, […] (SEQ ID NO:6). Human Cav1.2 channel α1C long form (Cav1.2a) probe spanning exon 1a and exon 2: […] (SEQ ID NO:7): forward primer, […] (SEQ ID NO:8): reverse primer. […] (SEQ ID NO:6).

For the substance vasoactive intestinal polypeptide [VIP], the “Ca^2+ influx” value in the assay with HCCSMC is “enhanced Ca^2+ influx”. Further, in assay [1] (adult human colonic circular smooth muscle cells), the “increase of α1C protein” value is recorded as “about 100%”. Besides, the “effect on TNFα suppression of α1C protein” value in assay [1] (muscle strip tissue, FIG. 14 top) is “minimized”. The “duration of elevated cAMP levels” value in the assay with cAMP is “at least 24 h”. For the same substance, the “intercellular cAMP levels” value in the assay on cAMP (24 h treatment) was “elevated throughout the 24 h period”. The “duration of CREB phosphorylation” value in the assay on CREB is given as “lasted about one hour”. Also, the “phosphorylation of CREB” value in the assay with CREB (HCCSMC) is given as “phosphorylated upon exposure to VIP; also recorded: transient phosphorylation”. Further, the “CREB binding to CRE1 and CRE2” value in the assay on CRE1 and CRE2 was “more CREB binds at both CRE1 and CRE2”. For the same substance, in the assay on p38, the “phosphorylation of p38” value is listed as “time-dependently dephosphorylated”. Besides, in assay [2], the “MPO (myeloperoxidase) activity” value was “did not completely suppress”; the TNBS-induced diarrhea result is “abrogated TNBS-induced diarrhea”; the “macroscopic and microscopic inflammation” value is “reduced macroscopic and microscopic inflammation”. Moreover, in [3] (muscle strips, treatment before/with TNFα), the “effect on TNFα suppression of contractile response to ACh” value is “significantly reduces the suppression; also recorded: partially reversed the suppression”. For the same substance, the “contractile response of circular muscle strips to ACh” value in assay [3] (strips incubated 24 h, organ bath) was “enhanced the contractile response to ACh and KCl; also recorded: increased their contractile response to ACh; also recorded: enhanced it”. Further, the “phosphorylation of ERK ½” value in the assay on ERK ½ is on record as “time-dependently dephosphorylated”. In addition, in assay [4] (HCCSMC), the “induction of α1C mRNA expression” value is recorded as “induced expression; also recorded: enhanced the mRNA of α1C”. For the same substance, the “duration of α1C mRNA transcription and translation after treatment” value in [4] (HCCSMC, FIG. 3) is “at least 24 h”. For the same substance, in [4] (at 6 h, adult human colonic circular smooth muscle cells), the “increase of α1C mRNA” value is listed as “about 50%”.
